US20230211004A1, “TETANUS TOXOID AND CRM-BASED PEPTIDES AND METHODS OF USE” (UNIVERSITY OF GEORGIA RESEARCH FOUNDATION, INC., priority 2019, published 2023)
Entries after “also recorded” stand apart in the source; their conditions may differ.

Experiments:
[1] = tested on: IFN-γ production by CD4+ T cell enriched donor PBMCs; type: cell-based, human
[2] = tested on: MHCII molecules (HLA-DR, HLA-DP, HLA-DQ) of Raji B cells; type: binding, human
[3] = tested on: CD4+ T cells; type: cell-based, human

Row | Sequence | Donor 1 IFN-γ [1] | Donor 2 IFN-γ [1] | Donor 3 IFN-γ [1] | Donor 4 IGN-γ [1] | IFN-γ production [1] | number of donors with significant levels of IFN-γ [1] | Observed in Isotypes [2] | CD4+ T cell proliferation compared to basal growth rate [3] | Donor 3 CFSE [3] | Donor 4 CFSE [3] | donors that gave positive / significant T cell response [3] | Donor 1 CFSE [3] | Donor 2 CFSE [3] | number of donors with positive T cell proliferative response [3] | T cell response against previously published TT epitopes [3]
1 | CKALNPKEIE (TT-derived peptide) [TT1093-1102] | * (key: * p < 0.05; ** p < 0.005; *** p < 0.0005) | * (key: * p < 0.05; ** p < 0.005; *** p < 0.0005) | ** (key: * p < 0.05; ** p < 0.005; *** p < 0.0005) | * (key: * p < 0.05; ** p < 0.005; *** p < 0.0005) | significant levels of IFN-γ response; also recorded: significant production of IFN-γ | at least three | pulled down in the -DQ IP; also recorded: DR, DQ | not significant compared to basal growth rate | ** (key: * p < 0.05; ** p < 0.005; *** p < 0.0005) | *** (key: * p < 0.05; ** p < 0.005; *** p < 0.0005) | Donors 3 and 4 | – | – | – | –
2 | DRILRVGYNAPGIPL (TT-derived peptide) [TT1222-1236] | – | *** (key: * p < 0.05; ** p < 0.005; *** p < 0.0005) | – | – | significant production of IFN-γ | – | – | – | – | * (key: * p < 0.05; ** p < 0.005; *** p < 0.0005) | – | * (key: * p < 0.05; ** p < 0.005; *** p < 0.0005) | *** (key: * p < 0.05; ** p < 0.005; *** p < 0.0005) | three | –
3 | GLTKVLALKVD (CRM-derived peptide) [CRM87-97] | * (key: * p < 0.05; ** p < 0.005; *** p < 0.0005) | ** (key: * p < 0.05; ** p < 0.005; *** p < 0.0005) | *** (key: * p < 0.05; ** p < 0.005; *** p < 0.0005) | ** (key: * p < 0.05; ** p < 0.005; *** p < 0.0005) | significant levels of IFN-γ response; also recorded: significant production of IFN-γ | at least three | – | not significant compared to basal growth rate | ** (key: * p < 0.05; ** p < 0.005; *** p < 0.0005) | *** (key: * p < 0.05; ** p < 0.005; *** p < 0.0005) | Donors 3 and 4 | – | – | – | –
4 | GYNAPGIPLYKK (TT-derived peptide) [TT1228-1239] | – | – | ** (key: * p < 0.05; ** p < 0.005; *** p < 0.0005) | ** (key: * p < 0.05; ** p < 0.005; *** p < 0.0005) | – | – | – | – | ** (key: * p < 0.05; ** p < 0.005; *** p < 0.0005) | *** (key: * p < 0.05; ** p < 0.005; *** p < 0.0005) | Donors 3 and 4 | – | – | – | –
5 | GYVDSIQKGIQKPK (CRM-derived peptide) [CRM26-39] | ** (key: * p < 0.05; ** p < 0.005; *** p < 0.0005) | ** (key: * p < 0.05; ** p < 0.005; *** p < 0.0005) | * (key: * p < 0.05; ** p < 0.005; *** p < 0.0005) | *** (key: * p < 0.05; ** p < 0.005; *** p < 0.0005) | significant levels of IFN-γ response; also recorded: significant production of IFN-γ | at least three | – | increased proliferation | * (key: * p < 0.05; ** p < 0.005; *** p < 0.0005) | *** (key: * p < 0.05; ** p < 0.005; *** p < 0.0005) | – | * (key: * p < 0.05; ** p < 0.005; *** p < 0.0005) | – | three | –
6 | KFIIKRYTPNNEIDSF (TT-derived peptide) [Peptide P32, reference compound] | – | ** (key: * p < 0.05; ** p < 0.005; *** p < 0.0005) | ** (key: * p < 0.05; ** p < 0.005; *** p < 0.0005) | * (key: * p < 0.05; ** p < 0.005; *** p < 0.0005) | – | – | – | – | ** (key: * p < 0.05; ** p < 0.005; *** p < 0.0005) | *** (key: * p < 0.05; ** p < 0.005; *** p < 0.0005) | – | – | *** (key: * p < 0.05; ** p < 0.005; *** p < 0.0005) | – | no significant response
7 | KTTAALSILPGIGS (CRM-derived peptide) [CRM299-312] | * (key: * p < 0.05; ** p < 0.005; *** p < 0.0005) | ** (key: * p < 0.05; ** p < 0.005; *** p < 0.0005) | * (key: * p < 0.05; ** p < 0.005; *** p < 0.0005) | ** (key: * p < 0.05; ** p < 0.005; *** p < 0.0005) | significant levels of IFN-γ response; also recorded: significant production of IFN-γ | at least three | pulled down in the HLA-DP specific immunoprecipitation; also recorded: pulled down in the -DQ IP; also recorded: identified through the -DR IP; also recorded: DR, DP, DQ | increased proliferation | ** (key: * p < 0.05; ** p < 0.005; *** p < 0.0005) | *** (key: * p < 0.05; ** p < 0.005; *** p < 0.0005) | – | *** (key: * p < 0.05; ** p < 0.005; *** p < 0.0005) | *** (key: * p < 0.05; ** p < 0.005; *** p < 0.0005) | four | –
8 | LFNRIKNNVAGEAL (TT-derived peptide) [TT94-107] | – | ** (key: * p < 0.05; ** p < 0.005; *** p < 0.0005) | ** (key: * p < 0.05; ** p < 0.005; *** p < 0.0005) | * (key: * p < 0.05; ** p < 0.005; *** p < 0.0005) | significant production of IFN-γ | at least three | – | increased proliferation | *** (key: * p < 0.05; ** p < 0.005; *** p < 0.0005) | ** (key: * p < 0.05; ** p < 0.005; *** p < 0.0005) | – | – | *** (key: * p < 0.05; ** p < 0.005; *** p < 0.0005) | three | –
9 | LYNGLKFIIKR (TT-derived peptide) [TT1169-1179] | – | * (key: * p < 0.05; ** p < 0.005; *** p < 0.0005) | * (key: * p < 0.05; ** p < 0.005; *** p < 0.0005) | * (key: * p < 0.05; ** p < 0.005; *** p < 0.0005) | significant production of IFN-γ | at least three | – | – | * (key: * p < 0.05; ** p < 0.005; *** p < 0.0005) | – | – | * (key: * p < 0.05; ** p < 0.005; *** p < 0.0005) | *** (key: * p < 0.05; ** p < 0.005; *** p < 0.0005) | three | –
10 | NFIGALET (TT-derived peptide) [TT660-667] | * (key: * p < 0.05; ** p < 0.005; *** p < 0.0005) | – | * (key: * p < 0.05; ** p < 0.005; *** p < 0.0005) | * (key: * p < 0.05; ** p < 0.005; *** p < 0.0005) | significant levels of IFN-γ response | at least three | – | – | ** (key: * p < 0.05; ** p < 0.005; *** p < 0.0005) | *** (key: * p < 0.05; ** p < 0.005; *** p < 0.0005) | Donors 3 and 4 | – | – | – | –
11 | NILMQYIKANSK (TT-derived peptide) [TT826-837] | – | – | * (key: * p < 0.05; ** p < 0.005; *** p < 0.0005) | – | – | – | – | no significant response | – | – | – | – | – | one | –
12 | QYIKANSKFIGITEL (TT-derived peptide) [Peptide P2, reference compound] | – | – | – | * (key: * p < 0.05; ** p < 0.005; *** p < 0.0005) | – | – | – | did not show increased proliferation; also recorded: did not show significant proliferation | * (key: * p < 0.05; ** p < 0.005; *** p < 0.0005) | *** (key: * p < 0.05; ** p < 0.005; *** p < 0.0005) | – | – | – | – | no significant response
13 | TPLPIAGVLLPTIPGK (CRM-derived peptide) [CRM425-440] | – | ** (key: * p < 0.05; ** p < 0.005; *** p < 0.0005) | ** (key: * p < 0.05; ** p < 0.005; *** p < 0.0005) | *** (key: * p < 0.05; ** p < 0.005; *** p < 0.0005) | significant production of IFN-γ | at least three | pulled down in the -DQ IP; also recorded: DR, DQ | increased proliferation | ** (key: * p < 0.05; ** p < 0.005; *** p < 0.0005) | *** (key: * p < 0.05; ** p < 0.005; *** p < 0.0005) | Donors 2,3, and 4 | – | *** (key: * p < 0.05; ** p < 0.005; *** p < 0.0005) | three | –
